pIC50: −log10 of the molar value. The source made the active and inactive calls. The rule behind the calls is not given here.
What was measured:
[1] = system: Mycobacterium tuberculosis; assay: Inhibition of Mycobacterium tuberculosis 20S proteasome open-gate mutant chymotrypsin like activity using Suc-LLVY-AMC as substrate assessed as decrease in enzyme velocity up to 100 uM
[2] = system: Mycobacterium tuberculosis; assay: Inhibition of Mycobacterium tuberculosis 20S proteasome open-gate mutant using Suc-LLVY-AMC as substrate at 1 mM preincubated for 30 mins followed by substrate addition measured after 90 mins by fluorescence assay
[3] = Inhibition of Mycobacterium tuberculosis 20S proteasome open-gate mutant using Suc-LLVY-AMC as substrate preincubated for 30 mins followed by substrate addition measured after 90 mins by fluorescence assay
[4] = Selectivity for Mycobacterium tuberculosis 20S proteasome open-gate mutant over human 20S proteasome

SMILES: CC(C)C[C@@H](NC(=O)[C@H](Cc1ccccc1)NC(=O)c1cnccn1)c1nsc(=O)o1
- inhibition [1]: inactive
- inhibition [2]: inactive

SMILES: CC(C)C[C@H](NC(=O)[C@H](Cc1ccccc1)NC(=O)c1cnccn1)B(O)O [BORTEZOMIB]
- pIC50 [3]: 7.60

SMILES: COc1cccc(-c2nsc(=O)o2)c1
- Selectivity ratio [4]: > 1000

SMILES: CC(C)C[C@H](NC(=O)[C@H](Cc1ccccc1)NC(=O)c1cnccn1)c1nsc(=O)o1
- inhibition [1]: inactive
- inhibition [2]: inactive
